Assay results reported in US20130172294A1, “Treatment with VB-201” (Vascular Biogenics Ltd., priority 2010, published 2013).
Where “and” joins values, the source holds several entries; their conditions need not be identical. Equal values may be shown once.

Experiment: Single-dose pharmacokinetics of VB-201 in plasma (Example 1)
Format: in vivo, human
Conditions: for AUC(0-infinity): in ng·h/mL
Description: Determination of VB-201 concentrations in plasma was performed using an HPLC-MS/MS (high performance liquid chromatography with tandem mass spectrometric detection) assay. Calibration was for a range of from 5 to 500 ng/ml for low doses and from 50 to 5000 ng/ml for high doses. Pharmacokinetic parameters were estimated by using a non-compartmental method, except for the AUC (area under curve), which was determined using a (log-) trapezoidal rule as the area above the previous trough level. […] All subjects were healthy male volunteers. Five cohorts of six subjects each received a single dose of 1, 3, 10, 30 or 50 mg VB-201. 10 subjects received a placebo. The VB-201 was formulated in gelatin capsules enterocoated with Eudragit®. […] Evaluation of relative bioavailability was performed for the primary target parameters AUC (area under the concentration-time curve) and Cmax-(maximum plasma concentration).

AUC(0-168) (single oral dose 1 mg): 501 ± 241 ng·h/mL | AUC(0-last non-BLQ) (single oral dose 1 mg): 388 ± 168 ng·h/mL | AUMC (single oral dose 1 mg): 70178 ± 38633 hours^2*ng/ml | Cavg (0-168) (single oral dose 1 mg): 2.98 ± 1.43 ng/mL | Cl/F (single oral dose 1 mg): 1.44 ± 0.087 L/h | Cmax (single oral dose 1 mg): 12.52 ± 2.42 ng/mL | Estimated amount circulating (single oral dose 1 mg): 0.26 ± 0.05 mg | Estimated minimum bioavailability (single oral dose 1 mg): 26 ± 5% | Ke (single oral dose 1 mg): 0.0165 ± 0.0099 h⁻¹ | MTT (single oral dose 1 mg): 76 ± 27 h | T1/2 (single oral dose 1 mg): 51 ± 19 h | Tmax (single oral dose 1 mg): 8.0 ± 2.1 h | AUC(0-infinity) (single oral dose 1 mg): 840 ± 309 | AUC(0-168) (single oral dose 3 mg): 2575 ± 1027 ng·h/mL | AUC(0-last non-BLQ) (single oral dose 3 mg): 2234 ± 1259 ng·h/mL | AUMC (single oral dose 3 mg): 214719 ± 133999 hours^2*ng/ml | Cavg (0-168) (single oral dose 3 mg): 15.33 ± 6.11 ng/mL | Cl/F (single oral dose 3 mg): 1.21 ± 0.49 L/h | Cmax (single oral dose 3 mg): 53.21 ± 19.43 ng/mL | Estimated amount circulating (single oral dose 3 mg): 1.12 ± 0.41 mg | Estimated minimum bioavailability (single oral dose 3 mg): 37 ± 14% | Ke (single oral dose 3 mg): 0.015 ± 0.0027 h⁻¹ | MTT (single oral dose 3 mg): 70 ± 16 h | T1/2 (single oral dose 3 mg): 48 ± 10 h | Tmax (single oral dose 3 mg): 8.2 ± 3.9 h | AUC(0-infinity) (single oral dose 3 mg): 2886 ± 1262 | AUC(0-168) (single oral dose 10 mg): 6138 ± 2259 ng·h/mL | AUC(0-last non-BLQ) (single oral dose 10 mg): 5634 ± 2705 ng·h/mL | AUMC (single oral dose 10 mg): 333614 ± 227308 hours^2*ng/ml | Cavg (0-168) (single oral dose 10 mg): 36.53 ± 13.44 ng/mL | Cl/F (single oral dose 10 mg): 1.83 ± 0.84 L/h | Cmax (single oral dose 10 mg): 131.7 ± 20.47 ng/mL | Estimated amount circulating (single oral dose 10 mg): 2.77 ± 0.62 mg | Estimated minimum bioavailability (single oral dose 10 mg): 28 ± 6% | Ke (single oral dose 10 mg): 0.0191 ± 0.0026 h⁻¹ | MTT (single oral dose 10 mg): 46 ± 20 h | T1/2 (single oral dose 10 mg): 37 ± 5 h | Tmax (single oral dose 10 mg): 7.1 ± 1.9 h | AUC(0-infinity) (single oral dose 10 mg): 6395 ± 2551 | AUC(0-168) (single oral dose 30 mg): 23243 ± 7277 ng·h/mL | AUC(0-last non-BLQ) (single oral dose 30 mg): 23243 ± 7277 ng·h/mL | AUMC (single oral dose 30 mg): 1463889 ± 520387 hours^2*ng/ml | Cavg (0-168) (single oral dose 30 mg): 138.4 ± 43.32 ng/mL | Cl/F (single oral dose 30 mg): 1.37 ± 0.58 L/h | Cmax (single oral dose 30 mg): 495.0 ± 154.2 ng/mL | Estimated amount circulating (single oral dose 30 mg): 10.40 ± 3.24 mg | Estimated minimum bioavailability (single oral dose 30 mg): 35 ± 11% | Ke (single oral dose 30 mg): 0.018 ± 0.0021 h⁻¹ | MTT (single oral dose 30 mg): 59 ± 4 h | T1/2 (single oral dose 30 mg): 39 ± 4 h | Tmax (single oral dose 30 mg): 6.0 ± 0.9 h | AUC(0-infinity) (single oral dose 30 mg): 24668 ± 7941 | AUC(0-168) (single oral dose 50 mg): 58816 ± 31297 ng·h/mL | AUC(0-last non-BLQ) (single oral dose 50 mg): 58816 ± 31297 ng·h/mL | AUMC (single oral dose 50 mg): 4719948 ± 3532459 hours^2*ng/ml | Cavg (0-168) (single oral dose 50 mg): 350.1 ± 186.3 ng/mL | Cl/F (single oral dose 50 mg): 0.97 ± 0.46 L/h | Cmax (single oral dose 50 mg): 1172 ± 459.4 ng/mL | Estimated amount circulating (single oral dose 50 mg): 24.61 ± 9.65 mg | Estimated minimum bioavailability (single oral dose 50 mg): 49% | Ke (single oral dose 50 mg): 0.015 ± 0.0027 h⁻¹ | MTT (single oral dose 50 mg): 67 ± 14 h | T1/2 (single oral dose 50 mg): 47 ± 9 h | Tmax (single oral dose 50 mg): 6.5 ± 0.8 h | estimated bioavailability, average of the other 4 subjects (single oral dose 50 mg): 38% | estimated bioavailability, 2 subjects with particularly high values (single oral dose 50 mg, individual subjects): 75% and 71% | AUC(0-infinity) (single oral dose 50 mg): 65628 ± 37141 | dose linearity of AUC and Cmax (single oral doses 1-50 mg): dose-linear and nearly dose-proportional | highest estimated bioavailability observed in individuals (single oral doses 1-50 mg): 75% | lowest estimated bioavailability observed in individuals (single oral doses 1-50 mg): 18%
SMILES: CCCCCCCCCCCCCCCCOCC(COP(=O)([O-])OCC[N+](C)(C)C)OCCCCC(=O)O (stereo not shown) [VB-201, 1-hexadecyl-2-(4′-carboxybutyl)-glycerol-3-phosphocholine]
